According to paper PMC6890677, “Surface Grafted MSI-78A Antimicrobial Peptide has High Potential for Gastric Infection Management” (Scientific Reports, 2019):
Where no end group is shown, it is not given here.

Assays:
S. epidermidis = test: MIC of AMP in solution, adhesion control strain
H. pylori NTCC 11637 [1] = settings: viability of the inoculum reduced by ≥99.9%, CFU on BA after 5 days, 2 replicates in 3 independent experiments
Procedure: (§1) H. pylori human strains J99 and 26695 (provided by Department of Medical Biochemistry and Biophysics, Umeå University, Sweden), NCTC 11637 (ATCC 43504) and mouse-adapted SS1 strain (provided by Unité de Pathogenèse de Helicobacter, Institut Pasteur, France) were grown following the standard procedure. Briefly, H. pylori was cultured in Blood Agar (BA; Oxoid) supplemented with 10% of defibrinated horse blood (Probiologica) and with an antibiotic cocktail (polymyxin B, vancomycin, amphotericin B, trimethoprim; all from Sigma-Aldrich) under microaerophilic conditions (<5% O2; GenBox System, BioMérieux) at 37 °C for 48 h. Afterwards, some colonies were streaked onto fresh BA medium and kept in culture in the same conditions for another 48 h. Subsequently, bacterial inoculum was adjusted to 0.03 optical density at 600 nm (OD600), which corresponds to approximately 1 × 10^7 colony forming units (CFUs)/mL[48]. Initial inoculum was confirmed by inoculation of 10 μL drops of the bacterial suspension onto BA and CFUs were counted after 5 days of incubation in the same above-mentioned settings.
(§2) The MBC was defined as the lowest AMP concentration that was able to diminish the viability of the initial bacterial inoculum by ≥99.9%. MBC determination followed the CLSI guidelines[49] but briefly, a 50 µL sample was taken from the first three lowest concentrations where no bacterial growth was observed (concentration corresponding to the MIC), serially diluted in PBS until 10^−6 and then spotted on BA. After 5 days of incubation at 37 °C in microaerophilic environment, the CFUs/mL were calculated. Two replicates of each AMP concentration were performed in three independent experiments.

H. pylori 26695 [2] = settings: viability of the inoculum reduced by ≥99.9%, CFU on BA after 5 days, 2 replicates in 3 independent experiments
Procedure: as §1, §2

H. pylori J99 [3] = settings: viability of the inoculum reduced by ≥99.9%, CFU on BA after 5 days, 2 replicates in 3 independent experiments
Procedure: as §1, §2

H. pylori NTCC 11637 [4] = settings: MHB + 10% FBS, 37 °C, microaerophilic, 72 h, 2 replicates in 3 independent experiments
Procedure: as §1
(§3) The MICs of the AMPs (Table 1) against H. pylori strains were determined using the microbroth dilution method in Mueller Hinton Broth (MHB) supplemented with 10% of inactivated Fetal Bovine Serum (FBS; Gibco) and in accordance with the Clinical Laboratory Standards Institute (CLSI) guidelines. Briefly, AMPs were diluted in 0.01% of acetic acid with 0.2% Bovine Serum Albumin (BSA; Sigma) to allow AMP protonation and avoid its aggregation, respectively, following an already established protocol. The selected AMPs concentrations ranged from 2 µg/mL up to 512 µg/mL. Incubation was performed at 37 °C in microaerophilic conditions for 72 h. The MIC was defined as the first AMP concentration that prevented visible (naked eye) bacterial growth. Two replicates of each AMP concentration were performed in three independent experiments.

H. pylori 26695 [5] = settings: MHB + 10% FBS, 37 °C, microaerophilic, 72 h, 2 replicates in 3 independent experiments
Procedure: as §1, §3

H. pylori SS1 [6] = settings: H. pylori SS1 (mouse-adapted); MHB + 10% FBS, 37 °C, microaerophilic, 72 h; 2 replicates in 3 independent experiments
Procedure: as §1, §3

H. pylori J99 [7] = settings: MHB + 10% FBS, 37 °C, microaerophilic, 72 h, 2 replicates in 3 independent experiments
Procedure: as §1, §3

H. pylori SS1 [8] = type: cell-based, Helicobacter pylori; settings: H. pylori SS1 (mouse-adapted); viability of the inoculum reduced by ≥99.9%; CFU on BA after 5 days; 2 replicates in 3 independent experiments
Procedure: as §1, §2

Row | Sequence | MIC (S. epidermidis) [µg/mL] | MBC (H. pylori NTCC 11637 [1]) [µg/mL] | MBC (H. pylori 26695 [2]) [µg/mL] | MBC (H. pylori J99 [3]) [µg/mL] | MIC (H. pylori NTCC 11637 [4]) [µg/mL] | MIC (H. pylori 26695 [5]) [µg/mL] | MIC (H. pylori SS1 [6]) [µg/mL] | MIC (H. pylori J99 [7]) [µg/mL] | MBC (H. pylori SS1 [8]) [µg/mL]
1 | GIGKFLKKAKKFAKAFVKILKK [MSI-78A] | 2 | 256 | 32 | 128 | 128 | 16 | 128 | 64 | 256
2 | GLLRASSVWGRKYYVDLAGCAKA [Odorranain-HP] |  | >512 | >512 | >512 | >512 | >512 | >512 | >512 | >512
3 | GIGKFLKKAKKFGKAFVKILKK [MSI-78] |  | >512 | 128 | >512 | 256 | 64 | 128 | 256 | >512
